Data as given in article PMC10060287 (Pharmacological Reports, 2023).
Entries after “also recorded” stand apart in the source; their conditions may differ. Ends that are not written are not given here.

Legend:
µ-opioid receptor (µOR) [1] = molecular target: T1, µ-opioid receptor (µOR) (Rattus norvegicus, UniProt P33535); format: binding, Wistar rat (brain membranes)
µ-opioid receptor (µOR) [2] = molecular target: T1, µ-opioid receptor (µOR); experiment: Saturation binding of [^3H]DAMGO with varying G-peptide concentrations; format: Wistar rat (brain membranes)

T1 sequence (P33535 whole entry): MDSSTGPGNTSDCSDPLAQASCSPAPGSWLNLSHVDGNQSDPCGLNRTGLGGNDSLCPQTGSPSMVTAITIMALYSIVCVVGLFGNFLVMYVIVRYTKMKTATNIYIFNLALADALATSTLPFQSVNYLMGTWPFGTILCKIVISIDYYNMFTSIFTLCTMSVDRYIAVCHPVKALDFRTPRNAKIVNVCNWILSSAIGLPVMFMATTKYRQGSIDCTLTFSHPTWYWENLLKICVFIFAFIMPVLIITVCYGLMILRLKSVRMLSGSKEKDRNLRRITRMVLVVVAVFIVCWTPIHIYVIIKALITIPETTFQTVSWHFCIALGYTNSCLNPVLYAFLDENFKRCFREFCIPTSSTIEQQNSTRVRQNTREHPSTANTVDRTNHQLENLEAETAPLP

In the case of IIKNNLKDCGLF-NH2 [G-peptide], the “G-peptide concentration needed for characteristic shift in the binding curve of morphine” value (µ-opioid receptor (µOR) [1]) is reported as at least 100 µM, the “affinity of the peptide” value (µ-opioid receptor (µOR) [1]) is reported as “micromolar level; also recorded: micromolar range” and the “allosteric modulation of µOR” value (µ-opioid receptor (µOR) [1]) is reported as “binds the µ-opioid receptor and acts as an allosteric modulator”. The “dose dependence of G-peptide effect on morphine binding” value (µ-opioid receptor (µOR) [1]) was “increases µOR affinity for its agonist morphine in a dose-dependent way”, the “orthosteric binding of the G-peptide” value (µ-opioid receptor (µOR) [1]) was “no significant orthosteric coupling to µOR; also recorded: inactive through the orthosteric binding site of µOR; also recorded: did not interact directly with the orthosteric binding site” and the “affinity increase caused by the G-peptide” value (µ-opioid receptor (µOR) [2]; saturation experiments for [H^3]DAMGO) was “dose dependency of the affinity increase”. The “lowest G-peptide concentration affecting the binding” value (µ-opioid receptor (µOR) [2]; saturation experiments with radio-ligand) was 10 µM, the “Bmax of DAMGO upon adding G-peptide” value (µ-opioid receptor (µOR) [2]; two sets of experiments, G-peptide 0.01 to 25 µM and 0.01 to 200 µM) was “concentration-dependent decrease in the Bmax value of DAMGO” and the “equilibrium dissociation constant Kd and Bmax of DAMGO upon adding G-peptide” value (µ-opioid receptor (µOR) [2]; varying concentrations of the G-peptide) was “change in both the equilibrium dissociation constant Kd and Bmax”.
